Assays:
ABUTH (Velvetleaf) [1] = assay: Postemergence herbicidal evaluation; type: in vivo, Abutilon theophrasti; conditions: postemergence
In short: (§1)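 Rate range approx. 0.0156–0.500 kg/ha. Foliar application at 40 psi to ~2-week seedlings; surfactant 0.5% TWEEN 20 in 50/50 acetone/water. Evaluation 4–5 wk post-treatment by 0–9 visual injury score, means of replicate tests.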

[2] = tested on: IPOHE (Morningglory, Ivyleaf); assay: Postemergence herbicidal evaluation; type: in vivo, Ipomoea hederacea; conditions: postemergence
In short: as §1

SETVI (Foxtail, Green) = assay: Postemergence herbicidal evaluation; type: in vivo, Setaria viridis; conditions: postemergence
In short: as §1

[3] = tested on: GLXMAW (Soybean, Williams); assay: Postemergence herbicidal evaluation; type: in vivo, Glycine max, (L.) Merr. cv Williams; conditions: postemergence
In short: as §1

ZEAMX (Corn, Field) = assay: Postemergence herbicidal evaluation; type: in vivo, Zea mays; conditions: postemergence
In short: as §1

ABUTH (Velvetleaf) [4] = assay: Preemergence herbicidal evaluation; type: in vivo, Abutilon theophrasti; conditions: rated 4-5 weeks after treatment, rating scale 0-9
In short: (§2)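 Sown cups got a single aqueous acetone spray of test compound (roughly 0.0156–0.500 kg/ha) before seedlings emerged. Evaluation, 4–5 weeks on, used a 0–9 visual scale covering plant stand, vigor, size, malformation, chlorosis and general appearance compared with controls.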

AMBEL (Ragweed, Common) = assay: Preemergence herbicidal evaluation; type: in vivo, Ambrosia artemisifolia; conditions: rated 4-5 weeks after treatment, rating scale 0-9
In short: as §2

CASOB (Sicklepod) = assay: Preemergence herbicidal evaluation; type: in vivo, Cassia obtusifolia; conditions: rated 4-5 weeks after treatment, rating scale 0-9
In short: as §2

[5] = tested on: IPOHE (Morningglory, Ivyleaf); assay: Preemergence herbicidal evaluation; type: in vivo, Ipomoea hederacea; conditions: rated 4-5 weeks after treatment, rating scale 0-9
In short: as §2

ECHCG (Barnyardgrass) = assay: Preemergence herbicidal evaluation; type: in vivo, Echinochloa crus-galli; conditions: rated 4-5 weeks after treatment, rating scale 0-9
In short: as §2

[6] = tested on: ECHORC (Watergrass (Calif.)); assay: Preemergence weed control under flooded paddy conditions; type: in vivo, Echinochloa oryzoides; conditions: rated 3-4 weeks after treatment
In short: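 Ratings on a 0-9 visual scale cover stand, vigor, malformation, size, chlorosis and overall appearance relative to a control, taken three to four weeks post-treatment. Application was into flood water over freshly sown silt loam at roughly 0.0313 to 0.500 kg/ha.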

CYPSE (Flatsedge) = assay: as above; type: in vivo, Cyperus serotinus; conditions: rated 3-4 weeks after treatment
In short: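 Values are visual 0-9 scores against a control for a preemergence application into paddy flood water at about 0.0313 to 0.500 kg/ha. Greenhouse duration was three to four weeks.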

SMILES: Cn1c(C(F)(F)F)cc(=O)n(-c2cc(N=C3SCC(=O)N3Cc3ccc(Cl)c(Cl)c3)c(Cl)cc2F)c1=O [Compound 144, 3-{4-Chloro-5-{[3-(3,4-dichlorobenzyl)-4-oxo-2-thiazolidinylidene]amino}-2-fluorophenyl}-1-methyl-6-(trifluoromethyl)-2,4(1H,3H)-pyrimidinedione]
- Herbicidal rating ABUTH (ABUTH (Velvetleaf) [1]; rate 0.0156 kg/ha): 9.0
- Herbicidal rating ABUTH (ABUTH (Velvetleaf) [1]; rate 0.0313 kg/ha): 9.0
- Herbicidal rating ABUTH (ABUTH (Velvetleaf) [1]; rate 0.0625 kg/ha): 9.0
- Herbicidal rating IPOHE ([2]; rate 0.0156 kg/ha): 9.0
- Herbicidal rating IPOHE ([2]; rate 0.0313 kg/ha): 9.0
- Herbicidal rating IPOHE ([2]; rate 0.0625 kg/ha): 9.0
- Herbicidal rating SETVI (SETVI (Foxtail, Green); rate 0.0156 kg/ha): 3.0
- Herbicidal rating SETVI (SETVI (Foxtail, Green); rate 0.0313 kg/ha): 3.0
- Herbicidal rating SETVI (SETVI (Foxtail, Green); rate 0.0625 kg/ha): 6.0
- Herbicidal rating GLXMAW ([3]; rate 0.0156 kg/ha): 5.0
- Herbicidal rating GLXMAW ([3]; rate 0.0313 kg/ha): 5.5
- Herbicidal rating GLXMAW ([3]; rate 0.0625 kg/ha): 6.5
- Herbicidal rating ZEAMX (ZEAMX (Corn, Field); rate 0.0156 kg/ha): 4.0
- Herbicidal rating ZEAMX (ZEAMX (Corn, Field); rate 0.0313 kg/ha): 4.0
- Herbicidal rating ZEAMX (ZEAMX (Corn, Field); rate 0.0625 kg/ha): 4.5
- Preemergence herbicidal rating ABUTH (ABUTH (Velvetleaf) [4]; rate 0.0156 kg/ha): 0.0
- Preemergence herbicidal rating ABUTH (ABUTH (Velvetleaf) [4]; rate 0.0313 kg/ha): 0.0
- Preemergence herbicidal rating ABUTH (ABUTH (Velvetleaf) [4]; rate 0.0625 kg/ha): 0.0
- Preemergence herbicidal rating ABUTH (ABUTH (Velvetleaf) [4]; rate 0.1250 kg/ha): 9.0
- Preemergence herbicidal rating ABUTH (ABUTH (Velvetleaf) [4]; rate 0.2500 kg/ha): 9.0
- Preemergence herbicidal rating AMBEL (AMBEL (Ragweed, Common); rate 0.0156 kg/ha): 0.0
- Preemergence herbicidal rating AMBEL (AMBEL (Ragweed, Common); rate 0.0313 kg/ha): 0.0
- Preemergence herbicidal rating AMBEL (AMBEL (Ragweed, Common); rate 0.0625 kg/ha): 0.0
- Preemergence herbicidal rating AMBEL (AMBEL (Ragweed, Common); rate 0.1250 kg/ha): 4.0
- Preemergence herbicidal rating AMBEL (AMBEL (Ragweed, Common); rate 0.2500 kg/ha): 7.0
- Preemergence herbicidal rating CASOB (CASOB (Sicklepod); rate 0.0156 kg/ha): 0.0
- Preemergence herbicidal rating CASOB (CASOB (Sicklepod); rate 0.0313 kg/ha): 0.0
- Preemergence herbicidal rating CASOB (CASOB (Sicklepod); rate 0.0625 kg/ha): 0.0
- Preemergence herbicidal rating CASOB (CASOB (Sicklepod); rate 0.1250 kg/ha): 1.0
- Preemergence herbicidal rating CASOB (CASOB (Sicklepod); rate 0.2500 kg/ha): 2.0
- Preemergence herbicidal rating IPOHE ([5]; rate 0.0156 kg/ha): 0.0
- Preemergence herbicidal rating IPOHE ([5]; rate 0.0313 kg/ha): 0.0
- Preemergence herbicidal rating IPOHE ([5]; rate 0.0625 kg/ha): 0.0
- Preemergence herbicidal rating IPOHE ([5]; rate 0.1250 kg/ha): 0.0
- Preemergence herbicidal rating IPOHE ([5]; rate 0.2500 kg/ha): 1.0
- Preemergence herbicidal rating ECHCG (ECHCG (Barnyardgrass); rate 0.0156 kg/ha): 0.0
- Preemergence herbicidal rating ECHCG (ECHCG (Barnyardgrass); rate 0.0313 kg/ha): 0.0
- Preemergence herbicidal rating ECHCG (ECHCG (Barnyardgrass); rate 0.0625 kg/ha): 0.0
- Preemergence herbicidal rating ECHCG (ECHCG (Barnyardgrass); rate 0.1250 kg/ha): 0.0
- Preemergence herbicidal rating ECHCG (ECHCG (Barnyardgrass); rate 0.2500 kg/ha): 1.0
- herbicidal effect rating, ECHORC ([6]; 0.0313 kg/ha): 0.0
- herbicidal effect rating, ECHORC ([6]; 0.0625 kg/ha): 0.0
- herbicidal effect rating, ECHORC ([6]; 0.1250 kg/ha): 1.0
- herbicidal effect rating, ECHORC ([6]; 0.2500 kg/ha): 3.0
- herbicidal effect rating, CYPSE (CYPSE (Flatsedge); 0.0313 kg/ha): 7.0
- herbicidal effect rating, CYPSE (CYPSE (Flatsedge); 0.0625 kg/ha): 7.0
- herbicidal effect rating, CYPSE (CYPSE (Flatsedge); 0.1250 kg/ha): 9.0
- herbicidal effect rating, CYPSE (CYPSE (Flatsedge); 0.2500 kg/ha): 9.0

SMILES: Cc1cc(C)cc(CN2C(=O)CSC2=Nc2cc(-n3c(=O)cc(C(F)(F)F)n(C)c3=O)c(F)cc2Cl)c1 [Compound 146, 3-{4-Chloro-5-{[3-(3,5-dimethylbenzyl)-4-oxo-2-thiazolidinylidene]amino}-2-fluorophenyl}-1-methyl-6-(trifluoromethyl)-2,4(1H,3H)-pyrimidinedione]
- Herbicidal rating ABUTH (ABUTH (Velvetleaf) [1]; rate 0.0156 kg/ha): 9.0
- Herbicidal rating ABUTH (ABUTH (Velvetleaf) [1]; rate 0.0313 kg/ha): 9.0
- Herbicidal rating ABUTH (ABUTH (Velvetleaf) [1]; rate 0.0625 kg/ha): 9.0
- Herbicidal rating IPOHE ([2]; rate 0.0156 kg/ha): 9.0
- Herbicidal rating IPOHE ([2]; rate 0.0313 kg/ha): 9.0
- Herbicidal rating IPOHE ([2]; rate 0.0625 kg/ha): 9.0
- Herbicidal rating SETVI (SETVI (Foxtail, Green); rate 0.0156 kg/ha): 1.0
- Herbicidal rating SETVI (SETVI (Foxtail, Green); rate 0.0313 kg/ha): 2.0
- Herbicidal rating SETVI (SETVI (Foxtail, Green); rate 0.0625 kg/ha): 3.0
- Herbicidal rating GLXMAW ([3]; rate 0.0156 kg/ha): 5.0
- Herbicidal rating GLXMAW ([3]; rate 0.0313 kg/ha): 6.0
- Herbicidal rating GLXMAW ([3]; rate 0.0625 kg/ha): 6.0
- Herbicidal rating ZEAMX (ZEAMX (Corn, Field); rate 0.0156 kg/ha): 4.0
- Herbicidal rating ZEAMX (ZEAMX (Corn, Field); rate 0.0313 kg/ha): 4.5
- Herbicidal rating ZEAMX (ZEAMX (Corn, Field); rate 0.0625 kg/ha): 4.5
- Preemergence herbicidal rating ABUTH (ABUTH (Velvetleaf) [4]; rate 0.0156 kg/ha): 0.0
- Preemergence herbicidal rating ABUTH (ABUTH (Velvetleaf) [4]; rate 0.0625 kg/ha): 1.0
- Preemergence herbicidal rating ABUTH (ABUTH (Velvetleaf) [4]; rate 0.1250 kg/ha): 9.0
- Preemergence herbicidal rating ABUTH (ABUTH (Velvetleaf) [4]; rate 0.2500 kg/ha): 9.0
- Preemergence herbicidal rating AMBEL (AMBEL (Ragweed, Common); rate 0.0156 kg/ha): 0.0
- Preemergence herbicidal rating AMBEL (AMBEL (Ragweed, Common); rate 0.0313 kg/ha): 0.0
- Preemergence herbicidal rating AMBEL (AMBEL (Ragweed, Common); rate 0.0625 kg/ha): 0.0
- Preemergence herbicidal rating AMBEL (AMBEL (Ragweed, Common); rate 0.1250 kg/ha): 0.0
- Preemergence herbicidal rating AMBEL (AMBEL (Ragweed, Common); rate 0.2500 kg/ha): 3.0
- Preemergence herbicidal rating CASOB (CASOB (Sicklepod); rate 0.0156 kg/ha): 0.0
- Preemergence herbicidal rating CASOB (CASOB (Sicklepod); rate 0.0313 kg/ha): 0.0
- Preemergence herbicidal rating CASOB (CASOB (Sicklepod); rate 0.0625 kg/ha): 0.0
- Preemergence herbicidal rating CASOB (CASOB (Sicklepod); rate 0.1250 kg/ha): 1.0
- Preemergence herbicidal rating CASOB (CASOB (Sicklepod); rate 0.2500 kg/ha): 1.0
- Preemergence herbicidal rating IPOHE ([5]; rate 0.0156 kg/ha): 0.0
- Preemergence herbicidal rating IPOHE ([5]; rate 0.0313 kg/ha): 0.0
- Preemergence herbicidal rating IPOHE ([5]; rate 0.0625 kg/ha): 0.0
- Preemergence herbicidal rating IPOHE ([5]; rate 0.1250 kg/ha): 0.0
- Preemergence herbicidal rating IPOHE ([5]; rate 0.2500 kg/ha): 0.0
- Preemergence herbicidal rating ECHCG (ECHCG (Barnyardgrass); rate 0.0156 kg/ha): 0.0
- Preemergence herbicidal rating ECHCG (ECHCG (Barnyardgrass); rate 0.0313 kg/ha): 0.0
- Preemergence herbicidal rating ECHCG (ECHCG (Barnyardgrass); rate 0.0625 kg/ha): 0.0
- Preemergence herbicidal rating ECHCG (ECHCG (Barnyardgrass); rate 0.1250 kg/ha): 0.0
- Preemergence herbicidal rating ECHCG (ECHCG (Barnyardgrass); rate 0.2500 kg/ha): 0.0
- herbicidal effect rating, ECHORC ([6]; 0.0313 kg/ha): 9.0
- herbicidal effect rating, ECHORC ([6]; 0.0625 kg/ha): 9.0
- herbicidal effect rating, ECHORC ([6]; 0.1250 kg/ha): 9.0
- herbicidal effect rating, ECHORC ([6]; 0.2500 kg/ha): 9.0
- herbicidal effect rating, CYPSE (CYPSE (Flatsedge); 0.0313 kg/ha): 0.0
- herbicidal effect rating, CYPSE (CYPSE (Flatsedge); 0.0625 kg/ha): 0.0
- herbicidal effect rating, CYPSE (CYPSE (Flatsedge); 0.1250 kg/ha): 0.0
- herbicidal effect rating, CYPSE (CYPSE (Flatsedge); 0.2500 kg/ha): 0.0

Reference: US20020137929A1, “1 - (3-heterocyclylphenyl) isothiourea, -isourea, -guanidine and -amidine herbicidal agents” (Intellectual Property Department, BASF Aktiengesellschaft, priority 1998, published 2002)
